Assay results: patent publication US5034396A, “Method of treating depression with optically active isomers of 20,21-dinoreburnamenines” (Roussel Uclaf, priority 1987, dated 1991)

Assays:
Sprague Dawley rats = test: Test of anti-depressive activity (forced swimming immobility); format: in vivo; conditions: Rattus norvegicus, ip, immobility during 5 minutes, intraperitoneally 24 hours, 5 hours and a half-hour before the test, read-out: DA50 (the source's name)
Experimental: (4) Test of anti-depressive activity
The tests were carried out on groups of 5 Sprague Dawley rats and the non-conditioned animals were put for 15 minutes in a vertical perspex cylinder (diameter: 18 cm, height: […]) containing water at 25° C. to a height of 15 cm (initial swimming test). They were then dried for 15 minutes in an enclosure heated to 32° C. and 24 hours later, they were replaced in the cylinder filled with water, and the total duration of the periods of immobility was measured during 5 minutes. The compound was administered intraperitonally successively 24 hours, 5 hours and a half-hour before the test. The first administration was made immediately after the first swimming test and just before replacing the animals in their breeding box. The averages of the groups treated were compared with those of the control group by the Dunnett test.

mice [1] = test: Test of neuronal protection in mice (kainic acid striatal lesion, serum enolase gamma-gamma); format: in vivo; conditions: mouse, 2 μg kainic acid in right striatum; product intraperitoneally 60 minutes before; blood samples 24 hours later; dose not given
Experimental: (3) Test of neuronal protection in mice
A cerebral lesion was carried out on the mouse by injection in the right striatum of 2 μg of kainic acid in a volume of 0.5 μl. […] The products were injected intraperitonally 60 minutes before the neurotoxic and the blood samples were taken 24 hours later.

[2] = system: alpha2 adrenergic receptors; test: Affinity for the alpha2 adrenergic receptors (3H rauwolscine displacement, rat cortex membranes); format: binding; conditions: 3H rauwolscine 0.15 nM, 45 minutes at 25° C., from CD (phentolamine) and CX (product) concentrations inhibiting 50% of specific fixation
Experimental: (1) Affinity for the alpha2 adrenergic receptors
10 cortices removed from the brains of male rats weighing an average of 150 g were homogenized in 90 ml of sucrose 0.32M and after centrifuging the homogenized mixture at 1,000 g for 10 minutes at 0° C., the supernatant was centrifuged at 30,000 g for 10 minutes at 0° to 4° C. The new residue obtained was suspended in 480 ml of NaKPO4 buffer, pH 7.4, 50 mM. 2 ml of the suspension were then incubated for 45 minutes at 25° C. in the presence of ^3 H rauwolscine at a concentration of 0.15 nM: (i) alone (ii) with increasing concentrations of the product under test, or (iii) to determine the non-specific fixation, with non-radioactive phentolamine at a concentration of 10^-5 M. The incubated suspensions were filtered on Whatman GF/C and the filters were washed three times with 5 ml of NaKPO4 buffer, pH 7.4 at 0° C. The radioactivity of the filters was measured by liquid scintillation.
The affinity of the product tested for the alpha2 adrenegic receptors was given relative to phentolamine as reference product.
CD=concentration of phentolamine inhibiting 50% of the specific fixation of the ^3 H rauwolscine:
CX=concentration of the product under test inhibiting 50% of the specific fixation of the ^3 H rauwolscine.

mice [3] = test: Hypobaric anoxia test on mice; format: in vivo; conditions: depression of 600 mm Hg, max 3 minutes, intraperitoneally 60 minutes before the test, dose not given
Experimental: (2) Hypobaric anoxia test on mice
This consisted of measuring over a maximum duration of 3 minutes the survival time of mice placed in a 2 liter enclosure in which there was a depression of 600 mm Hg. The products were administered intraperitoneally at a volume of 0.2 ml/10 g 60 minutes before the test.

| SMILES | ED50 (Sprague Dawley rats) [mg/kg] | enolase gamma-gamma (mice [1]) [%] | ARL (relative affinity for alpha2 adrenergic receptors, relative to phentolamine) [2] | Survival time (mice [3]) |
| --- | --- | --- | --- | --- |
| O[C@H]1C[C@@H]2CCCN3CCc4c(n1c1ccccc41)[C@@H]23 [Example 3, (14α, 16α) 14,15-dihydro-20,21-dinoreburnamenin-14-ol] | ~10 | -24 | 0.3 | +37% |
| O[C@@H]1C[C@H]2CCCN3CCc4c(n1c1ccccc41)[C@H]23 [Example 4, (3α, 14β) 14,15-dihydro-20,21-dinoreburnamenin-14-ol] | ~5 |  | 57 |  |
| C1=Cn2c3c(c4ccccc42)CCN2CCC[C@H]1[C@@H]32 [Example 5, (3α) 20,21-dinoreburnamenine] |  |  | 8 |  |
| C1=Cn2c3c(c4ccccc42)CCN2CCC[C@@H]1[C@H]32 [Example 6, (16α) 20,21-dinoreburnamenine] |  |  | 633 |  |
